In ChEMBL document CHEMBL3763039, “Development and Characterization of Potent Cyclic Acyldepsipeptide Analogues with Increased Antimicrobial Activity” (2016):
Values after ≈ are worked out from the molar mass of the structure shown. Where a SMILES comes first, the peptide text is derived from it. Bridges are numbered along the chain shown (N, C = ends). [ ]: non-standard residue; d: D form. The star is where a group is joined. Phe(F5) = N[C@@H](Cc1c(F)c(F)c(F)c(F)c1F)C(=O)O; Phe(3,5-F2) = N[C@@H](Cc1cc(F)cc(F)c1)C(=O)O; Pip(4S-Me) = C[C@H]1CCN[C@H](C(=O)O)C1; 2Nal = N[C@@H](Cc1ccc2ccccc2c1)C(=O)O; Pro(4R-Me) = C[C@H]1CN[C@H](C(=O)O)C1; Tiq1c(1S) = O=C(O)[C@H]1NCCc2ccccc21; Bta = N[C@@H](Cc1csc2ccccc12)C(=O)O; Heptenoyl(2E) = CCCC/C=C/C(=O)*; Cha = N[C@@H](CC1CCCCC1)C(=O)O; aThr = C[C@H](O)[C@H](N)C(=O)O; Pip = O=C(O)[C@@H]1CCCCN1; Abu = CC[C@H](N)C(=O)O; Dap = NC[C@H](N)C(=O)O

Columns and labels:
Format in all cases: functional
[1] = system: Neisseria meningitidis; assay: Antibacterial activity against Neisseria meningitidis H44/76 incubated for 16 to 18 hrs by broth microdilution method
[2] = system: Neisseria gonorrhoeae; assay: Antibacterial activity against chloramphenicol-resistant Neisseria gonorrhoeae N.279 incubated for 16 to 18 hrs by broth microdilution method
[3] = system: Escherichia coli; assay: Antibacterial activity against Escherichia coli MC4100 incubated for 16 to 18 hrs by broth microdilution method
[4] = system: Escherichia coli; assay: Antibacterial activity against Escherichia coli MC4100 expressing lptD-4213 incubated for 16 to 18 hrs by broth microdilution method
[5] = system: Pseudomonas aeruginosa; assay: Antibacterial activity against Pseudomonas aeruginosa PAO1 incubated for 16 to 18 hrs by broth microdilution method
[6] = system: Staphylococcus aureus; assay: Antibacterial activity against methicillin-resistant Staphylococcus aureus 1784A incubated for 16 to 18 hrs by broth microdilution method
[7] = system: Staphylococcus aureus; assay: Antibacterial activity against Staphylococcus aureus subsp. aureus Newman clinical isolate incubated for 16 to 18 hrs by broth microdilution method
[8] = system: Staphylococcus aureus; assay: Antibacterial activity against Staphylococcus aureus ATCC 29213 incubated for 16 to 18 hrs by broth microdilution method
[9] = system: Enterococcus faecalis; assay: Antibacterial activity against vancomycin-resistant Enterococcus faecalis V583 incubated for 16 to 18 hrs by broth microdilution method
[10] = system: Streptococcus pneumoniae; assay: Antibacterial activity against Streptococcus pneumoniae D39 incubated for 16 to 18 hrs by broth microdilution method
[11] = system: Bacillus subtilis; assay: Antibacterial activity against Bacillus subtilis PY79 incubated for 16 to 18 hrs by broth microdilution method
[12] = system: Listeria innocua; assay: Antibacterial activity against Listeria innocua incubated for 16 to 18 hrs by broth microdilution method

| SMILES | MIC [1] [µg/mL] | MIC [2] [µg/mL] | MIC [3] [µg/mL] | MIC [4] [µg/mL] | MIC [5] [µg/mL] | MIC [6] [µg/mL] | MIC [7] [µg/mL] | MIC [8] [µg/mL] | MIC [9] [µg/mL] | MIC [10] [µg/mL] | MIC [11] [µg/mL] | MIC [12] [µg/mL] |
| --- | --- | --- | --- | --- | --- | --- | --- | --- | --- | --- | --- | --- |
| CCCC/C=C/C(=O)N[C@@H](Cc1c(F)c(F)c(F)c(F)c1F)C(=O)N[C@H]1COC(=O)[C@@H]2C[C@@H](C)CN2C(=O)[C@H](CC)NC(=O)[C@@H]2CCCCN2C(=O)[C@@H]2CCCN2C1=O ({Heptenoyl(2E)}-[Phe(F5)]SP[Pip][Abu][Pro(4R-Me)]; ester 2-C) | 32 (≈ 38.1 µM) | 32 (≈ 38.1 µM) | > 128 | > 128 | > 128 | > 128 | > 128 | > 128 | 16 (≈ 19.1 µM) | > 128 | 128 (≈ 153 µM) | 4 (≈ 4.77 µM) |
| CCCC/C=C/C(=O)N[C@@H](CC1CCCCC1)C(=O)N[C@H]1COC(=O)[C@@H]2C[C@@H](C)CN2C(=O)[C@H](CC)NC(=O)[C@@H]2CCCCN2C(=O)[C@@H]2CCCN2C1=O ({Heptenoyl(2E)}-[Cha]SP[Pip][Abu][Pro(4R-Me)]; ester 2-C) | 32 (≈ 42.4 µM) | 32 (≈ 42.4 µM) | > 128 | > 128 | > 128 | 4 (≈ 5.3 µM) | 1 (≈ 1.32 µM) | 1 (≈ 1.32 µM) | 1 (≈ 1.32 µM) | 0.5 (≈ 0.662 µM) | 2 (≈ 2.65 µM) | ≤ 0.0625 |
| CCCC/C=C/C(=O)N[C@@H](Cc1cc(F)cc(F)c1)C(=O)N[C@@H]1C(=O)N2CCC[C@H]2C(=O)N2CCCC[C@H]2C(=O)N[C@@H](C)C(=O)N2CCC[C@H]2C(=O)O[C@H]1C | 0.25 (≈ 0.324 µM) | 0.125 (≈ 0.162 µM) | > 128 | > 128 | > 128 | 0.125 (≈ 0.162 µM) | 0.0625 (≈ 0.0811 µM) | 0.0078 (≈ 0.0101 µM) | 0.0078 (≈ 0.0101 µM) | ≤ 0.0625 | ≤ 0.0625 | ≤ 0.0625 |
| CN[C@@H](CC(C)C)C(=O)N[C@H]1C(=O)N[C@@H](CC(N)=O)C(=O)N[C@H]2C(=O)N[C@H]3C(=O)N[C@H](C(=O)N[C@@H](C(=O)O)c4cc(O)cc(O)c4-c4cc3ccc4O)[C@H](O)c3ccc(c(Cl)c3)Oc3cc2cc(c3O[C@H]2O[C@@H](CO)[C@H](O)[C@@H](O)[C@@H]2O[C@@H]2C[C@@](C)(N)[C@@H](O)[C@@H](C)O2)Oc2ccc(cc2Cl)[C@H]1O |  |  |  |  |  | 1.3 (≈ 0.897 µM) |  |  |  | 0.25 (≈ 0.173 µM) | 0.16 (≈ 0.11 µM) | 1 (≈ 0.69 µM) |
| CCCC/C=C/C(=O)N[C@@H](Cc1cc(F)cc(F)c1)C(=O)N[C@H]1COC(=O)[C@@H]2C[C@@H](C)CN2C(=O)[C@H](C)NC(=O)[C@@H]2C[C@@H](C)CCN2C(=O)[C@@H]2CCCN2C1=O ({Heptenoyl(2E)}-[Phe(3,5-F2)]SP[Pip(4S-Me)]A[Pro(4R-Me)]; ester 2-C) | 0.125 (≈ 0.159 µM) | 0.0625 (≈ 0.0796 µM) | > 128 | > 128 | > 128 | 4 (≈ 5.1 µM) | 0.5 (≈ 0.637 µM) | 0.0156 (≈ 0.0199 µM) | 0.0156 (≈ 0.0199 µM) | ≤ 0.0625 | ≤ 0.0625 | ≤ 0.0625 |
| CCCC/C=C/C(=O)N[C@@H](Cc1ccc2ccccc2c1)C(=O)N[C@H]1COC(=O)[C@@H]2C[C@@H](C)CN2C(=O)[C@H](CC)NC(=O)[C@@H]2CCCCN2C(=O)[C@@H]2CCCN2C1=O ({Heptenoyl(2E)}-[2Nal]SP[Pip][Abu][Pro(4R-Me)]; ester 2-C) | 32 (≈ 40.1 µM) | > 128 | > 128 | > 128 | > 128 | > 128 | > 128 | > 128 | 32 (≈ 40.1 µM) | 2 (≈ 2.5 µM) | 128 (≈ 160 µM) | 0.5 (≈ 0.626 µM) |
| CCCC/C=C/C(=O)N[C@@H](Cc1cc(F)cc(F)c1)C(=O)N[C@H]1CNC(=O)[C@@H]2C[C@@H](C)CN2C(=O)[C@H](C)NC(=O)[C@@H]2CCCCN2C(=O)[C@@H]2CCCN2C1=O ({Heptenoyl(2E)}-[Phe(3,5-F2)][Dap]P[Pip]A[Pro(4R-Me)]; lactam 2-C) | 1 (≈ 1.3 µM) | 1 (≈ 1.3 µM) | > 128 | > 128 | > 128 | 16 (≈ 20.8 µM) | 16 (≈ 20.8 µM) | 4 (≈ 5.2 µM) | 0.5 (≈ 0.649 µM) | 2 (≈ 2.6 µM) | 4 (≈ 5.2 µM) | ≤ 0.0625 |
| CCCC/C=C/C(=O)N[C@@H](Cc1cc(F)cc(F)c1)C(=O)N[C@H]1COC(=O)[C@@H]2C[C@@H](C)CN2C(=O)[C@H](CC)NC(=O)[C@@H]2c3ccccc3CCN2C(=O)[C@@H]2CCCN2C1=O ({Heptenoyl(2E)}-[Phe(3,5-F2)]SP[Tiq1c(1S)][Abu][Pro(4R-Me)]; ester 2-C) | 8 (≈ 9.6 µM) | 8 (≈ 9.6 µM) | > 128 | > 128 | > 128 | 4 (≈ 4.8 µM) | 8 (≈ 9.6 µM) | 4 (≈ 4.8 µM) | 0.25 (≈ 0.3 µM) | 0.5 (≈ 0.6 µM) | 2 (≈ 2.4 µM) | 0.125 (≈ 0.15 µM) |
| CCCC/C=C/C(=O)N[C@@H](Cc1cc(F)cc(F)c1)C(=O)N[C@H]1COC(=O)[C@@H]2C[C@@H](C)CN2C(=O)[C@H](CC)NC(=O)[C@@H]2CCCN2C(=O)[C@@H]2CCCN2C1=O ({Heptenoyl(2E)}-[Phe(3,5-F2)]SPP[Abu][Pro(4R-Me)]; ester 2-C) | 4 (≈ 5.19 µM) | 4 (≈ 5.19 µM) | > 128 | > 128 | > 128 | 2 (≈ 2.59 µM) | 2 (≈ 2.59 µM) | 2 (≈ 2.59 µM) | 0.25 (≈ 0.324 µM) | 0.5 (≈ 0.649 µM) | 0.125 (≈ 0.162 µM) | ≤ 0.0625 |
| CCCC/C=C/C(=O)N[C@@H](Cc1csc2ccccc12)C(=O)N[C@H]1COC(=O)[C@@H]2C[C@@H](C)CN2C(=O)[C@H](CC)NC(=O)[C@@H]2CCCCN2C(=O)[C@@H]2CCCN2C1=O ({Heptenoyl(2E)}-[Bta]SP[Pip][Abu][Pro(4R-Me)]; ester 2-C) | 32 (≈ 39.8 µM) | > 128 | > 128 | > 128 | > 128 | > 128 | 8 (≈ 9.94 µM) | 8 (≈ 9.94 µM) | 8 (≈ 9.94 µM) | 8 (≈ 9.94 µM) | 8 (≈ 9.94 µM) | 0.125 (≈ 0.155 µM) |
| C[C@@H]1C[C@H]2C(=O)O[C@@H](C)[C@H](NC(=O)[C@H](Cc3cc(F)cc(F)c3)NC(=O)/C=C/CC3CC3)C(=O)N3CCC[C@H]3C(=O)N3CCCC[C@H]3C(=O)N[C@@H](C)C(=O)N2C1 | 0.25 (≈ 0.319 µM) | 0.125 (≈ 0.16 µM) | > 128 | > 128 | > 128 | 0.125 (≈ 0.16 µM) | 0.0625 (≈ 0.0798 µM) | 0.0078 (≈ 0.00996 µM) | 0.0078 (≈ 0.00996 µM) | ≤ 0.0625 | ≤ 0.0625 | ≤ 0.0625 |
| CCCC/C=C/C(=O)N[C@@H](Cc1cc(F)cc(F)c1)C(=O)N[C@@H]1C(=O)N2CCC[C@H]2C(=O)N2CC[C@H](C)C[C@H]2C(=O)N[C@@H](C)C(=O)N2CCC[C@H]2C(=O)O[C@H]1C ({Heptenoyl(2E)}-[Phe(3,5-F2)][aThr]P[Pip(4S-Me)]AP; ester 2-C) | 0.125 (≈ 0.159 µM) | 0.125 (≈ 0.159 µM) | > 128 | > 128 | > 128 | 1 (≈ 1.27 µM) | 0.5 (≈ 0.637 µM) | 0.0078 (≈ 0.00994 µM) | 0.0156 (≈ 0.0199 µM) | ≤ 0.0625 | ≤ 0.0625 | ≤ 0.0625 |
| C[C@@H]1C[C@H]2C(=O)O[C@@H](C)[C@H](NC(=O)[C@H](Cc3cc(F)cc(F)c3)NC(=O)/C=C/CCCCC(=O)O)C(=O)N3CCC[C@H]3C(=O)N3CCCC[C@H]3C(=O)N[C@@H](C)C(=O)N2C1 | 4 (≈ 4.83 µM) | 1 (≈ 1.21 µM) | > 128 | > 128 | > 128 | 64 (≈ 77.2 µM) | 64 (≈ 77.2 µM) | 32 (≈ 38.6 µM) | 8 (≈ 9.65 µM) | 0.125 (≈ 0.151 µM) | 16 (≈ 19.3 µM) | 0.5 (≈ 0.603 µM) |
